Values quoted from earlier work as cited in patent US20070026383A1, “Methods and compositions for extracting membrane proteins” (Quintessence Biosciences, Inc., priority 2005, published 2007).

Assays:
[1] = not given; remark: listed apart in the source

CCc1c2c(nc3ccc(OC(=O)N4CCC(NCCCCC(=O)O)CC4)cc13)-c1cc3c(c(=O)n1C2)COC(=O)C3(O)CC (centres unmarked) [APC, 7-ethyl-10[4-N-(5-aminopentanoic acid)-1piperidino]carbonyloxycamptothecin]
fold weaker antitumor activity compared with SN-38 (relative to SN-38): 500 fold
antitumor activity in vitro [1]: weak antitumor activity

CCc1c2c(nc3ccc(OC(=O)N4CCC(N)CC4)cc13)-c1cc3c(c(=O)n1C2)COC(=O)[C@]3(O)CC [NPC, 7-ethyl-10-(4-amino-1-piperidino)carbonyloxycamptothecin]
antitumor activity in vitro [1]: weak antitumor activity

CCc1c2c(nc3ccc(O)cc13)-c1cc3c(c(=O)n1C2)COC(=O)[C@]3(O)CC [SN-38, 7-ethyl-10-hydroxycamptothecin]
fold higher antitumor activity than Irinotecan (relative to Irinotecan): 100-1,000 fold

CCc1c2c(nc3ccc(O[C@@H]4O[C@H](C(=O)O)[C@@H](O)[C@H](O)[C@H]4O)cc13)-c1cc3c(c(=O)n1C2)COC(=O)[C@]3(O)CC [SN-38G, 10-O-glucuronyl-SN-38]
activity of metabolite (glucuronide of SN-38): inactive
